SMILES strings stand for the structures. Where two headings read alike, the source gives them in different places. Peptide text beside a SMILES is read from it.

Experiment [1] deals with T1, BK2 receptor (Cavia porcellus, UniProt O70526).
T1 construct: tested for activity on guinea pig ileum in vitro on the standard tissue bath/strain gauge system; from tissue; host or cells: guinea pig ileum
T1 sequence (O70526 1-372): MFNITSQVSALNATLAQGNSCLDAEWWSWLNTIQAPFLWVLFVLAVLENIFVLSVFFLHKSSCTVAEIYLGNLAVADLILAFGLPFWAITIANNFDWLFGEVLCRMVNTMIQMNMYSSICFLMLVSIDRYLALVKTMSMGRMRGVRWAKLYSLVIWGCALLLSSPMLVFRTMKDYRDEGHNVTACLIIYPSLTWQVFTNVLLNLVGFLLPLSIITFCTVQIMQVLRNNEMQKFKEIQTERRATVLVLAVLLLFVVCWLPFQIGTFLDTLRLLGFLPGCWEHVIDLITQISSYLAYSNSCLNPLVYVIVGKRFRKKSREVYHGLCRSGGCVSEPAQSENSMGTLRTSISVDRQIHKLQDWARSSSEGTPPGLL
As to the kind of experiment: guinea-pig ileum (GPI) in vitro, antagonism of BK. In kind it is cell-based. On the procedure: Thus, in vitro studies were performed on standard assay systems, namely, guinea-pig ileum (GPI), rat uterus (RU) and rabbit jugular vein (RJV). […] The potency of each compound was assessed as a pA2 value according to the method of Arunlakshana & Schild, Br. J. Pharmacol. Chemother., 1.4:48-58 (1959). The pA2 can be defined as the negative logarithm of the molar concentration of the antagonist in the presence of which the potency of the agonist is reduced two-fold, i.e., twice the amount of agonist is required to produce a given response in the presence of, than in the absence of, the antagonist. A high potency of antagonism is indicated by a high pA2 value, i.e., a low concentration of antagonist is effective.
The percentage recovery (% Rec) was also determined for compounds with respect to each assay.
The various compounds identified in Table B below were prepared following the procedure of Example 1 with the Cys moiety introduced into the parent CP-0088 at the position indicated followed by reaction between the sulfhydryl group of the Cys residue and BMH to provide dimers as indicated. The Cys-modified monomers and the resultant dimers were tested for activity on guinea pig ileum in vitro on the standard tissue bath/strain gauge system as before.

Experiment [2] has as its target T2, BK2 receptor (Rattus norvegicus, UniProt P25023).
T2 sequence (P25023 1-396): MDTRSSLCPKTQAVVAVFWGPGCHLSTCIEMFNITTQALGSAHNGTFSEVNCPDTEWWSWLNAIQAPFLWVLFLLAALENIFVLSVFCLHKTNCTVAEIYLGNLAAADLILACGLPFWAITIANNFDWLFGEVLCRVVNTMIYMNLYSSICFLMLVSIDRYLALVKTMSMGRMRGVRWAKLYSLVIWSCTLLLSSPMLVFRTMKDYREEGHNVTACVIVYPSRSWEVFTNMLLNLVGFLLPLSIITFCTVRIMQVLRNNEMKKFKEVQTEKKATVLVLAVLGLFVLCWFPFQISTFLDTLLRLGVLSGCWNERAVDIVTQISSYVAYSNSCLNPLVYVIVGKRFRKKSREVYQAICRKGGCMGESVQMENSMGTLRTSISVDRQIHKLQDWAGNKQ
The experiment is described as follows: cell-based.

For a further experiment, the target named is T3, NK1 receptor (Cavia porcellus, UniProt P30547).
T3 construct: a standard guinea pig ileum assay of NK1 receptor activity; from tissue; host or cells: guinea pig ileum
As to the kind of experiment: guinea pig ileum assay of NK1 receptor activity against substance P. It is filed as cell-based. To be noted: Table O; read-out: NK1 : GPI pA2 (± s.e.m.) (converted). The text has this: In order to illustrate the potential of blocking two different receptor populations with a single compound a consensus NK1 receptor antagonist (DArg-DPro-Lys-Pro-Gln-Asn-DPhe-Phe-DTrp-Leu-Nle) was synthesized. […] Once the activity of this reference ligand was established, a series of lysine containing monomers formed by the systematic substitution of a lysine residue sequentially through the reference peptide was synthesized.

The mark [3] stands for this setting: Table B, read-out: pA2 GUINEA PIG ILEUM (converted).

T3 sequence (P30547 whole entry): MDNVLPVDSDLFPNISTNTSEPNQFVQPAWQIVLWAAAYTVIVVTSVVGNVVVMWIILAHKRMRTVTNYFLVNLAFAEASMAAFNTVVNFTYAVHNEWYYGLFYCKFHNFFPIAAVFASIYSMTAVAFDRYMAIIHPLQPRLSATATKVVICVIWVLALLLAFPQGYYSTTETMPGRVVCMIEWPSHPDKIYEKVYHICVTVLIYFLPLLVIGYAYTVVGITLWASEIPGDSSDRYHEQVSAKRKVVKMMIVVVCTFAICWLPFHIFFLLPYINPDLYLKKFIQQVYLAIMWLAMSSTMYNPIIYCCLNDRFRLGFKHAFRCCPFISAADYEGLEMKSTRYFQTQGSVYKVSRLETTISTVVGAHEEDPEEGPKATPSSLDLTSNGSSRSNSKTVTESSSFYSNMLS

On to `CC(C)C[C@H](NC(=O)[C@@H](Cc1ccccc1)NC(=O)[C@H](CSSC[C@H](NC(=O)[C@H](Cc1ccccc1)NC(=O)CNC(=O)[C@@H]1C[C@@H](O)CN1C(=O)[C@@H]1CCCN1C(=O)[C@H](CCCNC(=N)N)NC(=O)[C@H](N)CCCNC(=N)N)C(=O)N[C@H](Cc1ccccc1)C(=O)N[C@@H](CC(C)C)C(=O)N[C@@H](CCCNC(=N)N)C(=O)O)NC(=O)[C@H](Cc1ccccc1)NC(=O)CNC(=O)[C@@H]1C[C@@H](O)CN1C(=O)[C@@H]1CCCN1C(=O)[C@H](CCCNC(=N)N)NC(=O)[C@H](N)CCCNC(=N)N)C(=O)N[C@@H](CCCNC(=N)N)C(=O)O` [CP-0138] (HELM PEPTIDE1{[dR].R.P.[Hyp].G.F.C.[dF].L.R}|PEPTIDE2{[dR].R.P.[Hyp].G.F.C.[dF].L.R}$PEPTIDE1,PEPTIDE2,7:R3-7:R3$$$V2.0), for which the Kb on BK2 receptor [1] (Table E, read-out: GPI pA2 (converted)) is 63.1 nM; on BK2 receptor [2], 10 nM. `CC(C)C[C@H](NC(=O)[C@@H](Cc1ccccc1)NC(=O)[C@H](CO)NC(=O)[C@H](Cc1ccccc1)NC(=O)CNC(=O)[C@@H]1C[C@@H](O)CN1C(=O)[C@@H]1CCCN1C(=O)[C@H](CCCNC(=N)N)NC(=O)[C@@H](N)CS)C(=O)N[C@@H](CCCNC(=N)N)C(=O)O` [CP-0140] (HELM PEPTIDE1{C.R.P.[Hyp].G.F.S.[dF].L.R}$$$$V2.0): the Kb at BK2 receptor [1] (setting [3]) is 200 nM; at BK2 receptor [2] it was 79.4 nM. Turning to `CC(C)C[C@H](NC(=O)[C@@H](Cc1ccccc1)NC(=O)[C@H](CO)NC(=O)[C@H](CS)NC(=O)CNC(=O)[C@@H]1C[C@@H](O)CN1C(=O)[C@@H]1CCCN1C(=O)[C@H](CCCNC(=N)N)NC(=O)[C@H](N)CCCNC(=N)N)C(=O)N[C@@H](CCCNC(=N)N)C(=O)O` [CP-0144] (HELM PEPTIDE1{[dR].R.P.[Hyp].G.C.S.[dF].L.R}$$$$V2.0), on BK2 receptor [1] (setting [3]), the Kb is 398 nM.

As for `CC(C)C[C@H](NC(=O)[C@@H](Cc1ccccc1)NC(=O)[C@H](CO)NC(=O)[C@H](Cc1ccccc1)NC(=O)CNC(=O)[C@@H]1C[C@@H](O)CN1C(=O)[C@@H]1CCCN1C(=O)[C@H](CCCNC(=N)N)NC(=O)[C@H](N)CS)C(=O)N[C@@H](CCCNC(=N)N)C(=O)O` [CP-0149] (HELM PEPTIDE1{[dC].R.P.[Hyp].G.F.S.[dF].L.R}$$$$V2.0), on BK2 receptor [1] (setting [3]), the Kb is 200 nM. On the same count and under the same terms, the result for `CC(C)C[C@H](NC(=O)[C@@H](Cc1ccccc1)NC(=O)[C@H](CO)NC(=O)[C@H](Cc1ccccc1)NC(=O)CNC(=O)[C@@H]1C[C@@H](O)CN1C(=O)[C@@H]1CCCN1C(=O)[C@H](CCCNC(=N)N)NC(=O)[C@@H](N)CSC1CC(=O)N(CCCCCCN2C(=O)CC(SC[C@H](N)C(=O)N[C@@H](CCCNC(=N)N)C(=O)N3CCC[C@H]3C(=O)N3C[C@H](O)C[C@H]3C(=O)NCC(=O)N[C@@H](Cc3ccccc3)C(=O)N[C@@H](CO)C(=O)N[C@H](Cc3ccccc3)C(=O)N[C@@H](CC(C)C)C(=O)N[C@@H](CCCNC(=N)N)C(=O)O)C2=O)C1=O)C(=O)N[C@@H](CCCNC(=N)N)C(=O)O` (stereo partly shown) [CP-0152] (HELM PEPTIDE1{C.R.P.[Hyp].G.F.S.[dF].L.R}|PEPTIDE2{C.R.P.[Hyp].G.F.S.[dF].L.R}|CHEM1{[O=C1CC([*:1])C(=O)N1CCCCCCN1C(=O)CC([*:2])C1=O]}$PEPTIDE1,CHEM1,1:R3-1:R1|PEPTIDE2,CHEM1,1:R3-1:R2$$$V2.0) reads above 1000 nM; that for `CC(C)C[C@H](NC(=O)[C@@H](Cc1ccccc1)NC(=O)[C@H](CO)NC(=O)[C@H](Cc1ccccc1)NC(=O)CNC(=O)[C@@H]1C[C@@H](O)CN1C(=O)[C@@H]1CCCN1C(=O)[C@H](CSC1CC(=O)N(CCCCCCN2C(=O)CC(SC[C@H](NC(=O)[C@H](N)CCCNC(=N)N)C(=O)N3CCC[C@H]3C(=O)N3C[C@H](O)C[C@H]3C(=O)NCC(=O)N[C@@H](Cc3ccccc3)C(=O)N[C@@H](CO)C(=O)N[C@H](Cc3ccccc3)C(=O)N[C@@H](CC(C)C)C(=O)N[C@@H](CCCNC(=N)N)C(=O)O)C2=O)C1=O)NC(=O)[C@H](N)CCCNC(=N)N)C(=O)N[C@@H](CCCNC(=N)N)C(=O)O` (stereo partly shown) [CP-0153] (HELM PEPTIDE1{[dR].C.P.[Hyp].G.F.S.[dF].L.R}|PEPTIDE2{[dR].C.P.[Hyp].G.F.S.[dF].L.R}|CHEM1{[O=C1CC([*:1])C(=O)N1CCCCCCN1C(=O)CC([*:2])C1=O]}$PEPTIDE1,CHEM1,2:R3-1:R1|PEPTIDE2,CHEM1,2:R3-1:R2$$$V2.0), 25.1 nM; that for `CC(C)C[C@H](NC(=O)[C@@H](Cc1ccccc1)NC(=O)[C@H](CO)NC(=O)[C@H](Cc1ccccc1)NC(=O)CNC(=O)[C@@H]1C[C@@H](O)CN1C(=O)[C@H](CSC1CC(=O)N(CCCCCCN2C(=O)CC(SC[C@H](NC(=O)[C@H](CCCNC(=N)N)NC(=O)[C@H](N)CCCNC(=N)N)C(=O)N3C[C@H](O)C[C@H]3C(=O)NCC(=O)N[C@@H](Cc3ccccc3)C(=O)N[C@@H](CO)C(=O)N[C@H](Cc3ccccc3)C(=O)N[C@@H](CC(C)C)C(=O)N[C@@H](CCCNC(=N)N)C(=O)O)C2=O)C1=O)NC(=O)[C@H](CCCNC(=N)N)NC(=O)[C@H](N)CCCNC(=N)N)C(=O)N[C@@H](CCCNC(=N)N)C(=O)O` (stereo partly shown) [CP-0154] (HELM PEPTIDE1{[dR].R.C.[Hyp].G.F.S.[dF].L.R}|PEPTIDE2{[dR].R.C.[Hyp].G.F.S.[dF].L.R}|CHEM1{[O=C1CC([*:1])C(=O)N1CCCCCCN1C(=O)CC([*:2])C1=O]}$PEPTIDE1,CHEM1,3:R3-1:R1|PEPTIDE2,CHEM1,3:R3-1:R2$$$V2.0), 126 nM. With `CCCC[C@H](NC(=O)[C@H](CC(C)C)NC(=O)[C@@H](Cc1c[nH]c2ccccc12)NC(=O)[C@H](Cc1ccccc1)NC(=O)[C@@H](Cc1ccccc1)NC(=O)[C@H](CC(N)=O)NC(=O)[C@H](CCC(N)=O)NC(=O)[C@@H]1CCCN1C(=O)[C@H](CCCCN)NC(=O)[C@H]1CCCN1C(=O)[C@@H](N)CCCCNC(=O)CCCCCN1C(=O)CC(SC[C@H](NC(=O)[C@H](Cc2ccccc2)NC(=O)CNC(=O)[C@@H]2C[C@@H](O)CN2C(=O)[C@@H]2CCCN2C(=O)[C@H](CCCNC(=N)N)NC(=O)[C@H](N)CCCNC(=N)N)C(=O)N[C@H](Cc2ccccc2)C(=O)N[C@@H](CC(C)C)C(=O)N[C@@H](CCCNC(=N)N)C(=O)O)C1=O)C(N)=O` (stereo partly shown) [CP-0390] (HELM PEPTIDE1{K.[dP].K.P.Q.N.[dF].F.[dW].L.[Nle].[am]}|PEPTIDE2{[dR].R.P.[Hyp].G.F.C.[dF].L.R}|CHEM1{[O=C1CC([*:2])C(=O)N1CCCCCC(=O)[*:1]]}$PEPTIDE1,CHEM1,1:R3-1:R1|PEPTIDE2,CHEM1,7:R3-1:R2$$$V2.0), the Kb is 15800 nM at NK1 receptor and 63.1 nM on BK2 receptor [2].

`CCCC[C@H](NC(=O)[C@H](CC(C)C)NC(=O)[C@@H](Cc1c[nH]c2ccccc12)NC(=O)[C@H](Cc1ccccc1)NC(=O)[C@@H](Cc1ccccc1)NC(=O)[C@H](CC(N)=O)NC(=O)[C@H](CCC(N)=O)NC(=O)[C@@H]1CCCN1C(=O)[C@H](CCCCN)NC(=O)[C@H](CCCCNC(=O)CCCCCN1C(=O)CC(SC[C@H](NC(=O)[C@H](Cc2ccccc2)NC(=O)CNC(=O)[C@@H]2C[C@@H](O)CN2C(=O)[C@@H]2CCCN2C(=O)[C@H](CCCNC(=N)N)NC(=O)[C@H](N)CCCNC(=N)N)C(=O)N[C@H](Cc2ccccc2)C(=O)N[C@@H](CC(C)C)C(=O)N[C@@H](CCCNC(=N)N)C(=O)O)C1=O)NC(=O)[C@H](N)CCCNC(=N)N)C(N)=O` (stereo partly shown) [CP-0391] (HELM PEPTIDE1{[dR].K.K.P.Q.N.[dF].F.[dW].L.[Nle].[am]}|PEPTIDE2{[dR].R.P.[Hyp].G.F.C.[dF].L.R}|CHEM1{[O=C1CC([*:2])C(=O)N1CCCCCC(=O)[*:1]]}$PEPTIDE1,CHEM1,2:R3-1:R1|PEPTIDE2,CHEM1,7:R3-1:R2$$$V2.0): the Kb was 10000 nM at NK1 receptor and 79.4 nM on BK2 receptor [2].

The values above are taken from patent publication US5620958A, “Bradykinin antagonists” (Coretech, Inc., priority 1994, dated 1997).
